Experimental data from patent publication US4980349A, “Sulphonamides derived from diarylmethanes, the processes for preparing them and pharmaceutical compositions containing them” (SANOFI, priority 1986, dated 1990).
Read-outs that look alike come from different tables or passages of the source.

Columns and labels:
[1] = system: rat hind foot kaolin-induced oedema; test: Kaolin-induced arthritis test, first experiment (decrease in inflammation, foot volume); assay type: in vivo; conditions: 1 h before kaolin, Table IX, read-out: percentage decrease in the inflammation; for change in vivo at 25 mg/kg: 25 mg/kg oral; for change in vivo at 50 mg/kg: 50 mg/kg oral; for change in vivo at 100 mg/kg: 100 mg/kg oral
Protocol: The […] of 0.05 ml of a sterile 10% strength suspension of kaolin into the metatarsal flexor sheath of the hind foot of a rat initially induces an oedematous reaction. An inflammatory arthritis then forms.
The early oedematous reaction appears from the first hour, and reaches its maximum between the fourth hour and the sixth hour. This is the manifestation of interest. The assessment of the volume of the foot enables the action of substances on the oedematous reaction to be studied. The measurements are carried out using a Giono and Chevilard plethysmometer.
The test products are administered orally (stomach tube) one hour before the injection of the kaolin.
The results are expressed as a percentage decrease in the inflammation in the treated animals compared with a control series of animals.
The batches are of 10 animals per dose and 10 control animals.
The figures shown represent the mean of 10 animals.

[2] = system: biosynthesis of leukotrienes B4 (LTB4), human polymorphonuclear leukocytes; test: Biosynthesis of LTB4, isomers and oxidized metabolites in human polymorphonuclear leukocytes; assay type: cell-based; conditions: Leukocyte
Protocol: Polymorphonuclear leukocytes are isolated from human blood and used during the 6 hours following the withdrawal. The viability of the cells is checked by trypan blue exclusion.
5×10^6 cells are incubated for 10 minutes at 37° C. in the presence of the test product dissolved in DMSO, and are stimulated with ionophore A 23187 (Galbiochem, 10 μM) in PBS buffer at pH 7.4, Ca^2+ and Mg^2+ =1 μM.
100 ng of prostaglandin B2 (PGB2), dissolved in methanol, are added at the end of the reaction to act as an internal standard.
On centrifugation, the culture supernatant is withdrawn. The latter is retrieved under argon and stored at -80° C. until analysed by HPLC.
This analysis is carried out by injecting 250 μl onto a 5 μm ODS ultrasphere column (Beckmann), with a gradient of acetonitrile (20-80%) in water, at pH 7.4.
The amounts of the different products which absorb at 269 nm, i.e. leukotrienes B4 (LTB4), isomers of LTB4 and oxidized metabolites of LTB4, are estimated by comparison with the internal standard.
The test product is used at a concentration of 40 μM.
They are expressed either as a percentage inhibition, or as a percentage increase in the production of LTB4, isomers of LTB4 and oxidized metabolites of LTB4 (designated by +).
The experimental model is the same as that described in Section 2.1. Other products are tested by comparison with the compound of the invention no. 1574, used as a control.

[3] = system: rat hind foot carragheenin-induced oedema; test: Carragheenin-induced oedema test; assay type: in vivo; conditions: 3 h, first experiment, Table X, read-out: percentage inhibition of the inflammation; for change in vivo at 25 mg/kg: 25 mg/kg oral; for change in vivo at 50 mg/kg: 50 mg/kg oral; for change in vivo at 100 mg/kg: 100 mg/kg oral
Protocol: In this test, 10 rats are used per test compound of the invention. Control batches of 10 rats also receive either the comparative compound (ketoprofen) or exclusively an NaCl solution.
The compounds of the invention are administered orally (stomach tube) one hour before the injection of carragheenin.
The carragheenin is suspended at a concentration of 1% in a 0.9% isotonic sodium chloride solution. The volume injected into the rat's foot is 0.20 ml.
The volume of the foot is measured before the injection and 3 hours later. The antagonistic effect of the products towards carragheenin is reflected in the inhibition of the volume of the oedema compared with control rats. The latter receive only isotonic NaCl solution under identical conditions.

[4] = system: pain threshold of brewer's yeast inflamed rat hind foot; test: Randall and Sellitto's test (analgesic activity); assay type: in vivo; conditions: first experiment, Table XII, read-out: percentage increase in the mean pain threshold; for change in vivo at 25 mg/kg: 25 mg/kg oral; for change in vivo at 50 mg/kg: 50 mg/kg oral; for change in vivo at 100 mg/kg: 100 mg/kg oral
Protocol: Inflammation increases the sensitivity to pain, in particular to pressure, and analgesics raise the threshold of the sensitivity.
The inflammation is obtained by injecting 0.1 ml of a 20% strength aqueous suspension of brewer's yeast under the plantar aponeurosis of one of the hind feet. […] The pain threshold is assessed in terms of the force necessary and sufficient to initiate a characteristic reaction of withdrawing the foot.
The sensitivity to pain of the inflamed foot reaches a plateau 4 hours after the injection of the brewer's yeast, and then remains stable until the 6th hour. The pain threshold of the inflamed foot in control rats weighing 140 g is reached for pressures of 50 to 60 g, whereas it is around 160 g for the intact foot.
The action of the substance administered orally to series of 10 rats is expressed in terms of the percentage increase in the mean pain threshold, compared with that measured in the rats of a control series of 10 animals which have not received a compound of the invention.
The test products are administered orally (stomach tube) one hour before the injection of brewer's yeast.
The comparative compound used is ketoprofen.

[5] = first experiment, read-out: Isomers of LTB4: percentage inhibition (+ : percentage increase in the production)
[6] = first experiment, read-out: LTB4: percentage inhibition (+ : percentage increase in the production)
[7] = first experiment, read-out: Oxidized metabolites of LTB4: percentage inhibition (+ : percentage increase in the production)
[8] = second experiment, read-out: Percentage inhibition of LTB4 formation

SMILES	change in vivo at 25 mg/kg [1] [%]	change in vivo at 50 mg/kg [1] [%]	change in vivo at 100 mg/kg [1] [%]	inhibition at 40 µM [2, 5] [%]	inhibition at 40 µM [2, 6] [%]	inhibition at 40 µM [2, 7] [%]	change in vivo at 25 mg/kg [3] [%]	change in vivo at 50 mg/kg [3] [%]	change in vivo at 100 mg/kg [3] [%]	change in vivo at 25 mg/kg [4] [%]	change in vivo at 50 mg/kg [4] [%]	change in vivo at 100 mg/kg [4] [%]	inhibition at 40 µM [2, 8] [%]
O=C(O)CCCCCCCCCCNS(=O)(=O)c1ccccc1C(=O)c1ccccc1 [Compound 1682]	-35	-35	-40	30	30	40	-33	-42	-45	12	15	20	
O=C(O)CCCCCCCCCCCNS(=O)(=O)c1cccc(C(=O)c2cc(S(=O)(=O)NCCCCCCCCCCCC(=O)O)ccc2Cl)c1 [Compound 1689]				-30	-30	20							
O=C(O)CCCCCCCCCCNS(=O)(=O)c1ccc(Cl)c(C(=O)c2ccccc2)c1 [Compound 1737, 11-(3-benzoyl-4-chlorobenzenesulphonamido)undecanoic acid]													95
O=C(O)CCCCCCCCCCCNS(=O)(=O)c1ccccc1C(=O)c1ccccc1 [Compound 1683]	-25	-30	-40	15	15	30	-25	-30	-35	15	20	30	
O=C(O)CCCCCCCCCCNS(=O)(=O)c1cccc(C(=O)c2cc(S(=O)(=O)NCCCCCCCCCCC(=O)O)ccc2Cl)c1 [Compound 1688]	-25	-28	-48	-35	35	20	-25	-32	-50	25	32	50	
O=C(O)CCCNS(=O)(=O)c1ccc(Cl)cc1C(=O)c1ccccc1 [Compound 1567]	-12	-15	-20				-8	-10	-10	12	15	20	
O=C(O)CNS(=O)(=O)c1ccc(Cl)cc1C(=O)c1ccccc1 [Compound 1565]	-15	-20	-45				-18	-22	-49	18	28	42	
O=C(c1ccccc1)c1cc(Cl)ccc1S(=O)(=O)NCCCN1CCOCC1 [Compound 1344, 2-benzoyl-4-chloro-N-(3-morpholinopropyl)benzenesulphonamide]	-10	-15	-18							18	18	25	
O=C(O)CCCCCCCCCCCNS(=O)(=O)c1ccc(C(=O)c2ccccc2)cc1 [Compound 1687]	-23	-28	-50	0	16	-30	-25	-30	-48	25	35	50	
O=C(O)CCCCCCCCCCCNS(=O)(=O)c1cccc(C(=O)c2ccccc2)c1 [Compound 1685]				70	50	70							
O=C(O)CCCCCCCCCCNS(=O)(=O)c1cccc(C(=O)c2ccccc2)c1 [Compound 1684]	-28	-42	-45	35	20	60	-30	-45	-55	35	45	50	
O=C(O)CNS(=O)(=O)c1ccc(Cl)cc1C(=O)c1ccccc1Cl [Compound 1575]	-18	-21	-37				-15	-18	-35	15	19	35	
O=C(O)CCCCCCCNS(=O)(=O)c1ccc(Cl)cc1C(=O)c1ccccc1Cl [Compound 1743]													20
O=C(c1ccccc1)c1ccccc1S(=O)(=O)NCCCN1CCOCC1 [Compound 1340]	-10	-25	-45				-5	-5	-10	10	20	49	
O=C(O)CCCCCNS(=O)(=O)c1ccc([N+](=O)[O-])cc1C(=O)c1ccccc1 [Compound 1568]	-15	-18	-40				-15	-20	-35	18	25	48	
O=C(c1ccccc1)c1cc(Cl)ccc1S(=O)(=O)NCCN1CCOCC1 [Compound 1343]							-7	-8	-8	10	12	12	
O=C(O)CCCCCNS(=O)(=O)c1ccc(Cl)cc1C(=O)c1ccccc1 [Compound 1569]	-28	-30	-45				-30	-35	-50	10	15	25	
O=C(O)CCCNS(=O)(=O)c1ccc(C(=O)c2cccs2)cc1 [Compound 1738, 4-[4-(2-thenoyl)benzenesulphonamido]butyric acid]													20
